In patent publication US20260042731A1, “(2,4-DICHLOROPHENOXY)ACETIC ACID ANALOGS” (CORTEVA AGRISCIENCE LLC, priority 2022, published 2026):
Read-outs that look alike come from different tables or passages of the source.

How the values were obtained:
[1] = test system: Ambrosia artemisiifolia (AMBEL), common ragweed; assay: Postemergence herbicide evaluation, growth of Ambrosia artemisiifolia (AMBEL); format: in vivo; conditions: Ambrosia artemisiifolia, post-emergence, percent reduction in plant size vs untreated control, read-out: AVE. AMBEL; for pest or weed control at 280 g/ha: 280 g ae/ha; for pest or weed control at 560 g/ha: 560 g ae/ha
[2] = test system: Common Lambsquarters (CHEAL); assay: Greenhouse post-emergence mixture trials, percent visual control; format: in vivo; conditions: CHEAL, 21 DAA; for pest or weed control at 560 g/ha / pest or weed control at 1120 g/ha: Chenopodium album, post-emergence, 504 h, no mixing partner; for pest or weed control at 1120 g/ha: read-out: % Control
[3] = test system: Amaranthus rudis (AMATA), tall water hemp; assay: Postemergence herbicide evaluation, growth of Amaranthus rudis (AMATA); format: in vivo; conditions: Amaranthus tuberculatus, post-emergence, percent reduction in plant size vs untreated control, read-out: Ave. AMATA; for pest or weed control at 280 g/ha: 280 g ae/ha; for pest or weed control at 560 g/ha: 560 g ae/ha
[4] = test system: weeds ABUTH, AMATA, AMBEL, CHEAL, ERICA; assay: Postemergence herbicide evaluation, overall average % weed control across ABUTH, AMATA, AMBEL, CHEAL and ERICA; format: in vivo; conditions: post-emergence, average over five weeds, read-out: Overall Ave % Weed Control; for pest or weed control at 280 g/ha: 280 g ae/ha; for pest or weed control at 560 g/ha: 560 g ae/ha
[5] = test system: Abutilon theophrasti (ABUTH), velvetleaf; assay: Postemergence herbicide evaluation, growth of Abutilon theophrasti (ABUTH); format: in vivo; conditions: Abutilon theophrasti, post-emergence, percent reduction in plant size vs untreated control, read-out: AVE. ABUTH; for pest or weed control at 280 g/ha: 280 g ae/ha; for pest or weed control at 560 g/ha: 560 g ae/ha
Velvetleaf (ABUTH) = assay: Greenhouse post-emergence mixture trials, percent visual control; format: in vivo; conditions: ABUTH, 21 DAA; for pest or weed control at 560 g/ha / pest or weed control at 1120 g/ha: Abutilon theophrasti, post-emergence, 504 h; for pest or weed control at 560 g/ha: compound 560 g ae/ha; for pest or weed control at 1120 g/ha: compound 1120 g ae/ha, read-out: % Control
[6] = test system: Chenopodium album (CHEAL), common lambsquarters; assay: Postemergence herbicide evaluation, growth of Chenopodium album (CHEAL); format: in vivo; conditions: Chenopodium album, post-emergence, percent reduction in plant size vs untreated control, read-out: Ave. CHEAL; for pest or weed control at 280 g/ha: 280 g ae/ha; for pest or weed control at 560 g/ha: 560 g ae/ha
[7] = Volatility of compounds measured by thermogravimetric analysis (TGA); format: physicochemical
Corn (ZEAMX) = assay: Greenhouse post-emergence mixture trials, percent visual control; format: in vivo; conditions: ZEAMX, 21 DAA, no mixing partner; for % Control / plant injury at 560 g/ha: compound 560 g ae/ha
[8] = test system: glyphosate resistant Conyza canadensis (L.) (ERICA), horseweed; assay: Postemergence herbicide evaluation, growth of Conyza canadensis (ERICA); format: in vivo; conditions: Erigeron canadensis, post-emergence, percent reduction in plant size vs untreated control, read-out: Ave. ERICA; for pest or weed control at 280 g/ha: 280 g ae/ha; for pest or weed control at 560 g/ha: 560 g ae/ha
[9] = Trial Bridge 2, compound 560 g ae/ha + Saflufenacil 25 g ai or ae/ha
[10] = Trial Bridge 2, compound 560 g ae/ha + Saflufenacil 75 g ai or ae/ha
[11] = Trial Bridge 2, compound 560 g ae/ha + Trifludimoxazin 12.5 g ai or ae/ha
[12] = Trial Bridge 2, compound 560 g ae/ha + Trifludimoxazin 50 g ai or ae/ha
[13] = Trial Bridge 2, compound 1120 g ae/ha + Saflufenacil 25 g ai or ae/ha
[14] = Trial Bridge 2, compound 1120 g ae/ha + Saflufenacil 75 g ai or ae/ha
[15] = Trial Bridge 2, compound 1120 g ae/ha + Trifludimoxazin 12.5 g ai or ae/ha
[16] = Trial Bridge 2, compound 1120 g ae/ha + Trifludimoxazin 50 g ai or ae/ha
[17] = Trial Bridge 1, compound 560 g ae/ha + Arylex 5 g ai or ae/ha
[18] = Trial Bridge 1, compound 560 g ae/ha + Mesotrione 150 g ai or ae/ha
[19] = Trial Bridge 1, compound 1120 g ae/ha + Arylex 5 g ai or ae/ha
[20] = Trial Bridge 1, compound 1120 g ae/ha + Glufosinate 600 g ai or ae/ha
[21] = Trial Bridge 1, compound 1120 g ae/ha + Mesotrione 150 g ai or ae/ha
[22] = no mixing partner, Trial Bridge 3
[23] = Trial Bridge 1, mixing partner none
[24] = Trial Bridge 2, no mixing partner

O=C(COc1ccc(Cl)cc1Cl)Nc1cccnc1 [Compound D27]
81.5%: pest or weed control at 280 g/ha ([5]; 336 h, 14 DAA)
100%: pest or weed control at 280 g/ha ([1]; 504 h, 21 DAA) | pest or weed control at 560 g/ha ([1]; 504 h, 21 DAA) | % Control [2, 9] | % Control [2, 10] | % Control [2, 11] | % Control [2, 12] | % Control [2, 13] | % Control [2, 14] | % Control [2, 15] | % Control [2, 16] | % Control ([2]; Trial Bridge 3, compound 560 g ae/ha + Sulfentrazone 130 g ai/ha) | % Control ([2]; Trial Bridge 3, compound 560 g ae/ha + Sulfentrazone 347 g ai/ha) | % Control ([2]; Trial Bridge 3, compound 1120 g ae/ha + Sulfentrazone 130 g ai/ha) | % Control ([2]; Trial Bridge 3, compound 1120 g ae/ha + Sulfentrazone 347 g ai/ha) | pest or weed control at 1120 g/ha ([2]; Trial Bridge 3, compound 1120 g ae/ha) | pest or weed control at 1120 g/ha ([2]; Trial Bridge 1, compound 1120 g ae/ha) | % Control [2, 17] | % Control [2, 18] | % Control [2, 19] | % Control [2, 20] | % Control [2, 21] | pest or weed control at 560 g/ha ([3]; 504 h, 21 DAA) | pest or weed control at 560 g/ha ([5]; 504 h, 21 DAA) | % Control (Velvetleaf (ABUTH); compound 560 g ae/ha + Sulfentrazone 347 g ai/ha, Trial Bridge 3) | % Control (Velvetleaf (ABUTH); compound 1120 g ae/ha + Sulfentrazone 130 g ai/ha, Trial Bridge 3) | % Control (Velvetleaf (ABUTH); compound 1120 g ae/ha + Sulfentrazone 347 g ai/ha, Trial Bridge 3) | pest or weed control at 560 g/ha (Velvetleaf (ABUTH); [22]) | pest or weed control at 560 g/ha (Velvetleaf (ABUTH); [23]) | pest or weed control at 1120 g/ha (Velvetleaf (ABUTH); [23]) | pest or weed control at 560 g/ha (Velvetleaf (ABUTH); [24]) | pest or weed control at 1120 g/ha (Velvetleaf (ABUTH); [24]) | % Control (Velvetleaf (ABUTH); [17]) | % Control (Velvetleaf (ABUTH); Trial Bridge 1, compound 560 g ae/ha + Glufosinate 600 g ai or ae/ha) | % Control (Velvetleaf (ABUTH); Trial Bridge 1, compound 560 g ae/ha + Glyphosate 1120 g ai or ae/ha) | % Control (Velvetleaf (ABUTH); [18]) | % Control (Velvetleaf (ABUTH); Trial Bridge 1, compound 560 g ae/ha + diclosulam 35 g ai or ae/ha) | % Control (Velvetleaf (ABUTH); [19]) | % Control (Velvetleaf (ABUTH); [20]) | % Control (Velvetleaf (ABUTH); Trial Bridge 1, compound 1120 g ae/ha + Glyphosate 1120 g ai or ae/ha) | % Control (Velvetleaf (ABUTH); [21]) | % Control (Velvetleaf (ABUTH); Trial Bridge 1, compound 1120 g ae/ha + diclosulam 35 g ai or ae/ha) | % Control (Velvetleaf (ABUTH); [9]) | % Control (Velvetleaf (ABUTH); [10]) | % Control (Velvetleaf (ABUTH); [11]) | % Control (Velvetleaf (ABUTH); [12]) | % Control (Velvetleaf (ABUTH); [13]) | % Control (Velvetleaf (ABUTH); [14]) | % Control (Velvetleaf (ABUTH); [15]) | % Control (Velvetleaf (ABUTH); [16]) | pest or weed control at 280 g/ha ([8]; 336 h, 14 DAA) | pest or weed control at 560 g/ha ([8]; 336 h, 14 DAA)
75%: pest or weed control at 280 g/ha ([5]; 168 h, 7 DAA)
0.01 µg/min: TGA Data (rate of weight loss, volatility) [7]
98%: pest or weed control at 1120 g/ha ([2]; Trial Bridge 2, compound 1120 g ae/ha) | pest or weed control at 560 g/ha ([2]; Trial Bridge 1, compound 560 g ae/ha)
97%: pest or weed control at 560 g/ha ([4]; 336 h, 14 DAA) | pest or weed control at 280 g/ha ([5]; 504 h, 21 DAA)
97.5%: pest or weed control at 560 g/ha ([6]; 336 h, 14 DAA) | pest or weed control at 560 g/ha ([6]; 504 h, 21 DAA)
85%: pest or weed control at 280 g/ha ([1]; 168 h, 7 DAA) | pest or weed control at 560 g/ha ([1]; 168 h, 7 DAA) | pest or weed control at 280 g/ha ([3]; 504 h, 21 DAA) | pest or weed control at 280 g/ha ([6]; 336 h, 14 DAA) | pest or weed control at 560 g/ha ([8]; 168 h, 7 DAA)
90%: pest or weed control at 560 g/ha ([3]; 336 h, 14 DAA)
82.5%: pest or weed control at 280 g/ha ([6]; 168 h, 7 DAA)
98.5%: pest or weed control at 560 g/ha ([5]; 336 h, 14 DAA) | pest or weed control at 280 g/ha ([8]; 504 h, 21 DAA)
84.4%: pest or weed control at 560 g/ha ([4]; 168 h, 7 DAA)
87.3%: pest or weed control at 280 g/ha ([4]; 336 h, 14 DAA)
92%: pest or weed control at 560 g/ha ([3]; 168 h, 7 DAA)
78%: pest or weed control at 280 g/ha ([4]; 168 h, 7 DAA)
99.3%: pest or weed control at 560 g/ha ([4]; 504 h, 21 DAA)
94.9%: pest or weed control at 280 g/ha ([4]; 504 h, 21 DAA)
94%: pest or weed control at 280 g/ha ([6]; 504 h, 21 DAA)
77.5%: pest or weed control at 280 g/ha ([1]; 336 h, 14 DAA)
5%: % Control (Corn (ZEAMX); Trial Bridge 1) | % Control (Corn (ZEAMX); Trial Bridge 3) | plant injury at 560 g/ha (Corn (ZEAMX); Zea mays, post-emergence, 504 h, Trial Bridge 1) | plant injury at 560 g/ha (Corn (ZEAMX); Zea mays, post-emergence, 504 h, Trial Bridge 3) | plant injury at 1120 g/ha (Corn (ZEAMX); Zea mays, post-emergence, 504 h, compound 1120 g ae/ha, Trial Bridge 3)
95%: pest or weed control at 560 g/ha ([2]; Trial Bridge 2, compound 560 g ae/ha) | pest or weed control at 560 g/ha ([2]; Trial Bridge 3, compound 560 g ae/ha)
92.5%: pest or weed control at 280 g/ha ([3]; 336 h, 14 DAA)
99%: pest or weed control at 560 g/ha ([1]; 336 h, 14 DAA) | pest or weed control at 1120 g/ha (Velvetleaf (ABUTH); [22]) | pest or weed control at 560 g/ha ([8]; 504 h, 21 DAA)
80%: pest or weed control at 280 g/ha ([3]; 168 h, 7 DAA) | pest or weed control at 560 g/ha ([5]; 168 h, 7 DAA) | pest or weed control at 560 g/ha ([6]; 168 h, 7 DAA)
67.5%: pest or weed control at 280 g/ha ([8]; 168 h, 7 DAA)
